Experimental data taken from patent publication US20150030642A1, “POLYMER MICRO-NEEDLE ARRAY CHIP, PREPARATION PROCESS AND USE THEREOF” (Technical Institute of Physics and Chemistry of the Chinese …, priority 2012, published 2015).

How the values were obtained:
[1] = Journal of Pharmaceutical Sciences, 1998, 87, 922-925; cited from earlier work
[2] = tested on: pigskin used for simulated human skin
Excerpt: Freezing pigskin used for simulated human skin was thawed; sites of pesticide application were cleaned and disinfected after thawed;

For `O=C(O)CN(CC(=O)O)Cc1cc2c(cc1O)Oc1cc(O)c(CN(CC(=O)O)CC(=O)O)cc1C21OC(=O)c2ccccc21` [calcein], which “transdermal permeability speed, micro-needle versus traditional transdermal drug delivery” value [1] is on record?
The value was “increased by four orders of magnitude”.

With bovine serum albumin as the molecule, how does the penetration of skin [2] read?
The penetration of skin was “could penetrate the skin”.
